Test results taken from US20230346743A1, “COMBINATION CANCER THERAPIES” (The Board of Regents of the University of Oklahoma, priority 2018, published 2023).

Columns and labels:
Mycobacterium bovis BCG = details: Table of Brown et al., 2004; cited from earlier work
parental SKOV-3 cells = experiment: MTT cytotoxicity assay; type: cell-based, human; details: parental SKOV-3 p53 null cells
p21 = experiment: Western blots of p21 in ovarian cancer cell lines; type: cell-based, human; details: A2780, SKOV3, SKOV3 R273H, SKOV3 R248W
Procedure: Proteins were extracted from cell cultures using M-PER mammalian protein extraction reagent (ThermoFisher, Waltham, MA, USA) and volumes corresponding to 30 µg determined with BCA reagent (ThermoFisher, Waltham, MA, USA) were electrophoresed into a SDS-PAGE gel and transferred to PVDF membranes. Membranes were blocked (5% dry skim milk powder in TBST buffer) for at least 1 h or overnight, washed thrice with TBST and then incubated with primary antibody: p53 DO-1, β-actin, histone H3, GAPDH (Santa Cruz Biotechnology, Dallas, TX, USA) and mortalin, Tom20, V5 tag antibodies, p21, PARP, SLC7A11, caspase 3 (Cell Signaling Technology, Danvers, MA, USA) for at least 1 h or overnight. After three washes, membranes were incubated with anti-mouse HRP conjugated (Santa Cruz Biotechnology, Dallas, TX, USA) or anti-Rabbit HRP conjugated (Cell Signaling Technology, Danvers, MA, USA) for 40 min. Membranes then were washed and developed with ECL reagents (BioRad, Hercules, CA, USA). Bands were imaged and quantified (ChemiDoc imaging system with Image Lab Software/BioRad).

TP21 gene = experiment: qRT-PCR of TP21 in SKOV3 cells; type: cell-based, human; details: SKOV3 parental (p53 null) and R273H m-p53 cells; SHetA2 10 µM, PRIMA-1 20 µM, 16 h
SKOV3 R273H = experiment: MTT cytotoxicity assay; type: cell-based; details: Homo sapiens, SK-OV-3; SKOV3 permanently transfected with R273H m-p53, MTT
Procedure: Cells plated at 2000 cells/well in 96 well microtiter plates were incubated for 36-48 h and treated with a range of doses and combinations of SHetA2 and PRIMA-1 or PRIMA-1^MET, or the same volume of DMSO solvent for 72 h of incubation. The percentage of growth for single drug treatments or fold effect (1 - ratio of treated/untreated growth) was measured using the CellTiter 96 AQueous Non-Radioactive Cell Proliferation Assay (Promega, Madison, WI, USA) and the BioTeK SYNERGY H1 (BioTeK, Winooski, VT, USA). Each experiment was performed in triplicate and repeated 2-3 times.
The potencies (IC50′s) of SHetA2 or PRIMA-1 were determined using GraphPad Prism 6 software analysis of average MTT Optical Density vs drug dose. […] Single drug treatments at doses surrounding the IC50 values were evaluated parallel. All treatments were performed in triplicate and averages used to draw isobolograms and calculate combination indices (CI) and dose-reduction indices (DRIs) using CompuSyn Software according to the Chou and Talalay method (op cit). All experiments were repeated at least twice for each cell line to confirm results.

[1] = infusion in cancer patients; cited from earlier work
R282W m-p53 = experiment: P53 luciferase reporter assay in MESOV cells; type: cell-based, human; details: 60 µM PRIMA-1^MET, 24 h
Procedure: To determine the transcriptional activity of p53, MESOV cells were transfected with PG13-Luc plasmids. Approximately 5,000 transfected cells were seeded on to each well of 96-well plate and incubated overnight. These cells were treated with either control solvent, 5 µM SHetA2 or 60 µM PRIMA-1^MET for 24 h. Luciferase activity of the reporter was measured with the One-glo luciferase reporter assay kit (Promega, Madison, WI, USA) and a Biotek Synergy H1 plate reader (BioteK, Winooski, VT, USA). The MTT assay was performed in parallel cultures and used to normalize the p53 reporter activity to the amount of viable cells.

[2] = Toxicity in the MESOV mouse model (body weight, ascites, kidney and liver histology); type: in vivo
Procedure: (§1) Four-week-old female athymic nude mice (NCr-Foxn1^nu) were obtained from Taconic Biosciences under an approved Institutional Animal Care and Use Committee (IACUC) protocol. Mice were acclimatized for two weeks, fed with a standard diet and ear tagged during the acclimatization period. The timing to tumor development after intraperitoneal injection with various amounts of MESOV cells was determined in a pilot study prior. In the intervention experiment, 6-week-old mice were injected with 20 million MESOV human ovarian cancer cells in their intraperitoneal region. Drug treatment was initiated 4 weeks after the injection of cancer cells. Mice were randomized to four treatment groups before the start of treatment based on their body weight. There was no significant (one-way ANOVA, p >0.999) difference in body weight between groups at the start of treatment. Twelve mice were allocated to each group based on the power analysis performed while designing experiment. The sample size was determined to provide over 80% power to detect a 915 mm^3 difference in tumor volume between PRIMA-1^MET treatment alone and the drug combination treatment using a two-sided 0.05 level t-test. SHetA2 was administered by gavage at 60 mg/kg in 30% Kolliphor HS15 (Sigma). Controls were gavaged with Kolliphor HS15 (30% in water). PRIMA-1^MET (10 mg/kg) was dissolved in phosphate buffered saline and injected into the peritoneum of mice every other day. Initially SHetA2 dosing was administered every day for two weeks in SHetA2 alone and drug combination groups, and then switched to every other day for the next three weeks due to the stress caused to the mice by daily gavage. Oral gavaging was performed with sterile disposable plastic feeding tubes 20 ga × 38 mm (Instech Laboratories, Inc., Plymouth Meeting, PA, USA). Three mice in the drug combination group died after two weeks of drug treatment due to gavaging incidents. Body weights were recorded and animal health was monitored weekly. After the end of drug intervention period, all mice were euthanized by CO2 asphyxiation followed by exsanguination, their tumors and other vital organs were collected for further analysis. After measuring the total tumor weight, a portion of the tumors were snap frozen in liquid nitrogen and another portion was formalin fixed. The formalin fixed tissue samples were paraffin embedded, sectioned and stained with hematoxylin and eosins for histology studies. An experienced pathologist reviewed blinded histology slides for kidney and liver toxicity.

[3] = test system: MESOV human ovarian cancer cells; experiment: Tumor establishment after intraperitoneal injection of MESOV cells (secondary chemoprevention model); type: in vivo; details: nu/nu mice, MESOV i.p.
Procedure: as §1, with “The sample size was determined to provide over 80% power to detect a 915 mm^3 difference in tumor volume between PRIMA-1^MET treatment alone and the drug combination treatment using a two-sided 0.05 level t-test. SHetA2 was administered by gavage at 60 mg/kg in 30% Kolliphor HS15 (Sigma).” left out, “PRIMA-1^MET” left out, “toxicity. Presence or absence of tumor at the end of the treatment period was used as the primary outcome measure. […] Two by two logistic regression was used to compare the four treatment groups (Untreated control, SHetA2, […] combination) in the study. Mice in the first 3 groups had complete data, while 3 mice in the combo group died early and had zero tumor weights. […]” for “toxicity.”

Cervical Cancer = experiment: Dose reduction index at various fold effects in cervical cancer; type: cell-based, human; design: Palbociclib Dose: unit not given beside the values; details: cell line not named
Description: Combination Indices (CI's) were derived to determine the level of synergy using the Chow and Talalay method. […] The Dose Reduction Indices (DRIs) were derived to determine the level of reduction for one drug that could be allowed by addition of the second drug at various fold effects (Fas) of the combination treatment (Table 16).

SMILES | range (Mycobacterium bovis BCG) | other results
CC(C)CCOc1ccc(NC(=S)Nc2ccc(OCCC(C)C)cc2)cc1 | 0.5-1.0 | –
COC(=O)c1ccc(C(=O)Oc2ccc3c(c2)OC(C)(C)C=C3C)cc1 | 2.0-4.0 | –
CCOC(=O)c1ccc(NC(=S)Nc2ccc3c(c2)C(C)(C)CC(C)(C)O3)cc1 | 5.0-10.0 | –
CC(=C/C=N/NC(N)=S)/C=C/c1ccc2c(c1)C(C)CC(C)(C)N2C (stereo not shown) | 10.0-20.0 | –
CC1(C)CC(C)(C)c2cc(NC(=S)Nc3ccc([N+](=O)[O-])cc3)ccc2O1 | 20.0-40.0 | –
CCOC(=O)c1ccc(NC(=S)Nc2ccc3c(c2)C(C)=CC(C)(C)N3C)cc1 | 20.0-40.0 | –
CCOC(=O)c1ccc(NC(=O)Nc2ccc3c(c2)C(C)(C)CC(C)(C)O3)cc1 | 20.0-40.0 | –
CC1=CC(C)(C)N(C)c2ccc(NC(=S)Nc3ccc([N+](=O)[O-])cc3)cc21 | 20.0-40.0 | –
CCOC(=O)c1ccc(NC(=O)Nc2ccc3c(c2)C(C)(C)CC(C)(C)S3)cc1 | 20.0-40.0 | –
CCOC(=O)c1ccc(NC(=O)Nc2ccc3c(c2)C(C)=CC(C)(C)N3C)cc1 | 20.0-40.0 | –
CCOC(=O)c1ccc(NC(=S)Nc2ccc3c(c2)C(C)(C)CC(C)(C)S3)cc1 | 20.0-40.0 | –
COc1ccc2c(c1NC(=S)Nc1ccc([N+](=O)[O-])cc1)C(C)(C)COC2(C)C | 20.0-40.0 | –
CCOC(=O)c1ccc(NC(=S)Nc2cccc3c2OC(C)(C)CC3(C)C)cc1 | 20.0-40.0 | –
COc1ccc2c(c1NC(=S)NC(=O)c1ccc([N+](=O)[O-])cc1)C(C)(C)COC2(C)C | 20.0-40.0 | –
CC1(C)CC(C)(C)c2cccc(NC(=S)Nc3ccc([N+](=O)[O-])cc3)c2O1 | 20.0-40.0 | –
CCOC(=O)c1ccc(NC(=O)Nc2cccc3c2OC(C)(C)CC3(C)C)cc1 | 20.0-40.0 | –
O=C1C2CCN(CC2)C1(CO)CO [PRIMA-1, 2,2-Bishydroxymethyl-1-azabicyclo[2.2.2]octan-3-one, reference compound] | – | PRIMA-1 sensitivity (parental SKOV-3 cells): resistant; p21 protein (Western blot) (p21): only induced p21 protein expression in A2780 (wt p53); TP21 transcription (qRT-PCR) (TP21 gene): did not induce TP21 transcription; IC50 (SKOV3 R273H): 40 µM
COCC1(CO)C(=O)C2CCN1CC2 (stereo not shown) [PRIMA-1^MET, 2-(hydroxymethyl)-2-(methoxymethyl)-1-azabicyclo [2.2.2]octan-3-one] | – | Clinical safety [1]: relatively safe with fully reversible central nervous system-related side effects; p53 transcriptional activity (PG13-Luc reporter) (R282W m-p53): reactivation of R282W m-p53 in MESOV was observed; Kidney or liver toxicity (H & E histology) ([2]; mouse, in vivo, ip): did not cause kidney or liver toxicity; Average body weights compared with mock group ([2]; nu/nu mice, MESOV i.p.): significantly higher than the mock group; Effects on body weight or ascites (abdominal size) ([2]; nu/nu mice, MESOV i.p.): no significant effects on body weight or ascites; OR for preventing tumor development (additive logistic regression model) [3]: 4.464; Tumor-free rates ([3]; SHetA2 60 mg/kg gavage, PRIMA-1^MET 10 mg/kg i.p., treatment from day 28 for 38 days): 25%
CC(=O)c1c(C)c2cnc(Nc3ccc(N4CCNCC4)cn3)nc2n(C2CCCC2)c1=O [Palbociclib, reference compound] | – | Palbociclib Dose (Cervical Cancer; Fold Effect (Fa) 0.05): 7.16; Palbociclib Dose (Cervical Cancer; Fold Effect (Fa) 0.75): 24.03; Palbociclib Dose (Cervical Cancer; Fold Effect (Fa) 0.90): 80.72; Palbociclib Dose (Cervical Cancer; Fold Effect (Fa) 0.95): 184.00
